Format in all cases: cell-based, murine
One assay has as its system fibroblast line L929. Briefly: Test of TBARS: lipid peroxidation after H2O2-Fe2+/Fe3+ stress. The note with it: 400 μg/mL.
For assay [1], the system named is fibroblast cell line L929. Briefly: In vitro assay of intracellular OASes (H2DCF-DA probe) after H2O2/iron oxidative stress. The note with it: dose 400 μg/mL; L929, H2O2/iron stress. From the text:
We have set up a model for an in vitro study of oxidative stress induced by H2O2/iron, H2O2 which massively generates intracellular OASes by a chain reaction triggered by the oxidation of membrane lipids.
This technique is based on the use of a fluorescent probe, 6-carboxy-2′, 7′ dichlorodihydrofluorescein diacetate, di(acetoxymethyl ester) (H2DCF-DA), which, once it has penetrated the cell, is deacetylated by the intracellular esterases then forming H2DCF. This product is oxidized by intracellular OASes into a highly fluorescent compound: 2′,7′-dichlorofluorescein, (DCF) (Suematsu M et al, 1996, Free Radicals Practical Approach, Punchard ed. P83-99).
Cutaneous murine fibroblast cell line L929.
The tested concentrations are non-cytotoxic concentrations. Cytoxicity was evaluated by the neutral red method, after incubation of the product for 3 hours.
The reference anti-radical product is vitamin E or α-tocopherol (MW: 430.7) (SIGMA, ref.: T-1539).
The mother solution is prepared at 400 mg/mL in DMSO and stored at −20° C. The pretreatment solution is prepared extemporaneously at 400 μg/mL in a culture medium without FCS.
For evaluating unsaturated fatty amino acid derivatives, the dilutions are prepared in the culture medium extemporaneously for a range of concentrations of 0.02, 0.2, 2 and 20 ng/mL.
The cells of the fibroblast line L929 are sown in microplates with 96 wells with a flat bottom in 100 μL of DMEM supplemented with 10% of FCS, and they are then incubated overnight at 37° C. in a humid atmosphere with 5% CO2.
The dilutions of the products to be tested and of the reference molecule are conducted in culture mediums without FCS, and then deposited in 7 wells in an amount of 100 μL per well.
The cells are then incubated for 3 hours at 37° C. in a humid atmosphere with 5% CO2.
The cells are rinsed with PBS 1× in an amount of 100 μL per well. Next they are set to incubate for 30 min at 37° C. in a humid atmosphere with 5% CO2 and with 50 μL of H2DCF-DA probe at 5 μM.
After 30 min in contact with the probe alone, the cells are incubated for 30 min at 37° C. in a humid atmosphere with […] with addition of 25 μL of H2O2 at 800 μM and 25 μL of 8 mM ferrous and ferric iron solution, in order to have final concentrations of 200 μM of H2O2 and 2 mM of ferrous and ferric iron.
The cells are then rinsed with PBS 1× in an amount of 100 μL per well, and then incubated for 30 min at 37° C. in a humid atmosphere with 5% CO2 and with 100 μL of PBS 1×.
These 1 h 30 minutes of incubation at 37° C. allow the intracellular esterases to deacetylate the H2DCF probe, oxidizable by intracellular OASes into DCF; a fluorescent compound, the formation of which is proportional to the amount of intracellular OASes.
The fluorescence intensity is read with the cytofluorimeter at λexcitation=485 nm and λemission=530 nm. It reflects the amount of produced intracellular OASes.
With the below ratio, it is possible to calculate for each concentration of tested product the % of protection against production of intracellular OASes (since the fluorescence intensity or FI expresses intracellular release of OASes).
The values indicated in Table 3 are percentages of inhibition of intracellular OAS production following an exogenous oxidative stress, relatively to <> cells (100%) and to <> cells (0%).

The subject of a further assay is B16-F10 line. Nature of the assay: Synthesis of melanin, colorimetric assay, basal and after alpha MSH stimulation. Conditions: Mus musculus, alpha MSH-stimulated B16-F10, read-out: inhibition of melanogenesis. Here is the method: 6.1) The modulating effect of unsaturated fatty amino-acid derivatives on melanogenesis was analyzed. For this, a measurement of the synthesis of melanin by a colorimetric assay is carried out on a cell line of murine melanomas: the B16-F10 line.
The effect of the products is investigated in a basal situation and after stimulating melanogenesis by a MSH for determining the depigmenting power.
The level of extracellular and intracellular melanin is then measured by spectrophotometry at a wave length of 405 nm according to the procedure (Meun, Y. J. et al.). The amount of pigment is determined by a standard range of melanin and by analysis on the Microwin software package (Berthold Biotechnologies). An assay of total proteins is conducted for samples of intracellular melanin by the BCA-Copper method at 540 nm. The standard range is produced with a standard protein, BSA (Bovine Albumin Serum).

A word on the inhibition: it is how much of the control response was suppressed.

Regarding `Cc1c(C)c2c(c(C)c1O)CC[C@@](C)(CCC[C@H](C)CCC[C@H](C)CCCC(C)C)O2` [Vitamin E, α-tocopherol, reference compound], the “protection against lipid peroxidation, in words” value with fibroblast line L929 is given as “very effectively protects cell membranes”. Moreover, the “percentage of inhibition of intracellular OAS production (protection)” value in assay [1] is 31%.
On to `Oc1ccc(O)cc1` [hydroquinone, reference compound], for which the inhibition at 1 µg/mL with B16-F10 line (1 μg/mL) is around 60%.
`O=C1O[C@H]([C@@H](O)CO)C(O)=C1O` [vitamin C, reference compound]: the inhibition at 40 µg/mL in the assay on B16-F10 line (40 μg/mL) is around 60%.

(Values after US20100240754A1, “UNSATURATED FATTY AMINO ACID DERIVATIVES AND USE THEREOF IN DERMAL COSMETOLOGY” (Pierre Fabre Demo-Cosmetique, priority 2007, published 2010).)
